From patent publication US11292798B2, “Merocyanine-based compound and biomolecular labeling dye, kit and contrast agent composition comprising same” (SFC CO., LTD., priority 2017, dated 2022)

Assay: absorption spectrum, light emission spectrum, molecular extinction coefficient and quantum efficiency in solvents
Format: physicochemical

Compound | ε (molecular extinction coefficient) (solvent DMSO) | λem (solvent DMSO) | λex (solvent DMSO) | φ (quantum efficiency) (solvent DMSO) | ε (molecular extinction coefficient) (solvent CH2Cl2) | λem (solvent CH2Cl2) | λex (solvent CH2Cl2) | φ (quantum efficiency) (solvent CH2Cl2) | ε (molecular extinction coefficient) (solvent H2O) | λem (solvent H2O) | λex (solvent H2O) | ε (molecular extinction coefficient) (solvent PBS) | λem (solvent PBS) | λex (solvent PBS) | ε (molecular extinction coefficient) (solvent EtOH) | λem (solvent EtOH) | λex (solvent EtOH) | φ (quantum efficiency) (solvent EtOH) | φ (quantum efficiency) (solvent H2O) | φ (quantum efficiency) (solvent PBS) | further results
CC1(C)C2=C3C=C(C(=O)[O-])C(=O)OC3CCN2c2ccc(S(=O)(=O)[O-])cc21.[Na+].[Na+] (centres unmarked) [Compound 2] | 30,000 Lmol^−1cm^−1 | 500 nm | 468 nm | 0.768 | 20,000 Lmol^−1cm^−1 | 495 nm | 429 nm | 0.169 | 45,000 Lmol^−1cm^−1 | 489 nm | 453 nm | 44,000 Lmol^−1cm^−1 | 487 nm | 451 nm | – | – | – | – | 0.718 | 0.796 | ε (molecular extinction coefficient) (solvent MeOH): 50,000 Lmol^−1cm^−1; λem (solvent MeOH): 493 nm; λex (solvent MeOH): 463 nm; φ (quantum efficiency) (solvent MeOH): 0.625
CC1(C)C2=C3C=CC(=O)OC3CCN2c2ccc(S(=O)(=O)[O-])cc21.[Na+] (centres unmarked) [Compound 3] | 27,000 Lmol^−1cm^−1 | 470 nm | 416 nm | 0.645 | 22,000 Lmol^−1cm^−1 | 464 nm | 403 nm | 0.227 | 28,000 Lmol^−1cm^−1 | 492 nm | 423 nm | 28,000 Lmol^−1cm^−1 | 492 nm | 423 nm | – | – | – | – | 0.764 | 0.759 | ε (molecular extinction coefficient) (solvent MeOH): 27,000 Lmol^−1cm^−1; λem (solvent MeOH): 484 nm; λex (solvent MeOH): 410 nm; φ (quantum efficiency) (solvent MeOH): 0.667
CC1(C)C2=C3C=C(C(=O)[O-])C(=O)OC3CCN2c2ccccc21.[Na+] (centres unmarked) [Compound 5] | 49,000 Lmol^−1cm^−1 | 490 nm | 466 nm | 0.913 | – | – | – | – | 50,000 Lmol^−1cm^−1 | 483 nm | 452 nm | 49,000 Lmol^−1cm^−1 | 483 nm | 454 nm | 51,000 Lmol^−1cm^−1 | 485 nm | 462 nm | 0.412 | 0.062 | 0.633 | –
COC(=O)C1=CC2=C3N(CCC2OC1=O)c1cc2c(cc1C3(C)C)-c1ccccc1C2(C)C (centres unmarked) [Compound 60] | 42,000 Lmol^−1cm^−1 | 513 nm | 476 nm | – | 41,000 Lmol^−1cm^−1 | 511 nm | 470 nm | – | 38,000 Lmol^−1cm^−1 | 523 nm | 476 nm | – | – | – | 42,000 Lmol^−1cm^−1 | 519 nm | 474 nm | – | – | – | –
CC1(C)C2=C3C=C(C(=O)O)C(=O)OC3CCN2c2cc3c(cc21)-c1ccccc1C3(C)C (centres unmarked) [Compound 61] | 47,000 Lmol^−1cm^−1 | 525 nm | 480 nm | – | 46,000 Lmol^−1cm^−1 | 522 nm | 484 nm | – | 46,000 Lmol^−1cm^−1 | 516 nm | 468 nm | 46,000 Lmol^−1cm^−1 | 518 nm | 468 nm | 49,000 Lmol^−1cm^−1 | 525 nm | 480 nm | – | – | – | –
CC1(C)C2=C3C=C(CC(=O)[O-])C(=O)OC3CCN2c2ccc(S(=O)(=O)[O-])cc21.[Na+].[Na+] (centres unmarked) [Compound 64] | 26,000 Lmol^−1cm^−1 | 472 nm | 412 nm | 0.84 | 22,000 Lmol^−1cm^−1 | 468 nm | 414 nm | 0.01 | 26,000 Lmol^−1cm^−1 | 500 nm | 422 nm | 27,000 Lmol^−1cm^−1 | 503 nm | 423 nm | 28,000 Lmol^−1cm^−1 | 483 nm | 408 nm | 0.78 | 0.91 | 0.95 | –

Second part, led by results:

ε (molecular extinction coefficient) (solvent DMSO) | λem (solvent DMSO) | λex (solvent DMSO) | φ (quantum efficiency) (solvent DMSO) | ε (molecular extinction coefficient) (solvent CH2Cl2) | λem (solvent CH2Cl2) | λex (solvent CH2Cl2) | φ (quantum efficiency) (solvent CH2Cl2) | ε (molecular extinction coefficient) (solvent H2O) | λem (solvent H2O) | λex (solvent H2O) | ε (molecular extinction coefficient) (solvent PBS) | λem (solvent PBS) | λex (solvent PBS) | ε (molecular extinction coefficient) (solvent EtOH) | λem (solvent EtOH) | λex (solvent EtOH) | φ (quantum efficiency) (solvent EtOH) | Compound | φ (quantum efficiency) (solvent H2O) | φ (quantum efficiency) (solvent PBS) | further results
63,000 Lmol^−1cm^−1 | 479 nm | 456 nm | 0.900 | – | – | – | – | – | – | – | – | – | – | – | – | – | – | COC(=O)C1=CC2=C3N(CCC2OC1=O)c1ccccc1C3(C)C (centres unmarked) [Compound 1] | – | – | –
53,000 Lmol^−1cm^−1 | 503 nm | 474 nm | 0.928 | – | – | – | – | – | – | – | – | – | – | – | – | – | – | COC(=O)C1=CC2=C3N(CCC2OC1=O)c1ccc2ccccc2c1C3(C)C (centres unmarked) [Compound 6] | – | – | –
47,000 Lmol^−1cm^−1 | 516 nm | 492 nm | 0.910 | – | – | – | – | – | – | – | – | – | – | – | – | – | – | CC(=O)C1=CC2=C3N(CCC2OC1=O)c1ccc2ccccc2c1C3(C)C (centres unmarked) [Compound 9] | – | – | –
47,000 Lmol^−1cm^−1 | 519 nm | 494 nm | 0.935 | 49,000 Lmol^−1cm^−1 | 515 nm | 488 nm | 0.137 | 48,000 Lmol^−1cm^−1 | 516 nm | 492 nm | 51,000 Lmol^−1cm^−1 | 516 nm | 492 nm | 47,000 Lmol^−1cm^−1 | 516 nm | 490 nm | 0.872 | CC1(C)C2=C3C=C(C(=O)CCCC(=O)[O-])C(=O)OC3CCN2c2ccc3cc(S(=O)(=O)[O-])ccc3c21.[Na+].[Na+] (centres unmarked) [Compound 16] | 0.405 | 0.417 | –
46,000 Lmol^−1cm^−1 | 516 nm | 492 nm | 0.958 | 42,000 Lmol^−1cm^−1 | 511 nm | 486 nm | 0.944 | 26,000 Lmol^−1cm^−1 | 520 nm | 468 nm | 29,000 Lmol^−1cm^−1 | 520 nm | 486 nm | 47,000 Lmol^−1cm^−1 | 516 nm | 486 nm | 0.820 | CCOC(=O)CCCC(=O)C1=CC2=C3N(CCC2OC1=O)c1ccc2ccccc2c1C3(C)C (centres unmarked) [Compound 62] | 0.194 | 0.193 | –
15,000 Lmol^−1cm^−1 | 470 nm | 416 nm | – | 15,000 Lmol^−1cm^−1 | 466 nm | 414 nm | – | 17,000 Lmol^−1cm^−1 | 506 nm | 432 nm | 17,000 Lmol^−1cm^−1 | 507 nm | 434 nm | 15,000 Lmol^−1cm^−1 | 485 nm | 416 nm | – | CC1(C)C2=C3C=C(CC(=O)O)C(=O)OC3CCN2c2ccccc21 (centres unmarked) [Compound 63] | – | – | –
